According to patent US10272053B2, “Nanoparticle targeted drug delivery to the lungs using extra-testicular sertoli cells” (UNIVERSITY OF SOUTH FLORIDA, priority 2008, dated 2019):

Assay: Quantification of curcumin in lungs of injected asthmatic mice (UV absorbance)
Format: in vivo, mouse
Settings: IV SCET
Experimental: […] Each lung was placed in a labeled container with 1 ml PBS. The lungs were then sonicated for 10 seconds by the Sonic Dismembrinator 60 (Fisher Scientific) to lyse the Sertoli cells and release the curcumin nanoparticles. The curcumin was then separated from the nanoparticles by adding 500 μl DMSO to each container. The suspension was then centrifuged at 1200 rpm for 10 minutes and the supernatant was collected. A UV spectrum was collected from each supernatant sample.
In addition to normal mice, some female C57BL/6 and BALB/c mice were sensitized by intraperitoneal injection (i.p.) of 10 μl ovalbumin (OVA) with alum as previously described to mimic acute allergic asthma (Weggman, M. Animal models of chronic experimental asthma—strategies for the identification of new therapeutic targets. Occup Med Toxicol. 3 (Suppl 1) (2008); Temelkovski J, Hogan S P, Shepherd D P, Foster P S, Kumar R K. An improved murinemodel of asthma: selective airway inflammation, epithelial lesions and increased methacholine responsiveness following chronic exposure to aerosolised allergen. Thorax. 10, 849-56 (1998)). The mice were challenged weekly for 3 weeks with an intranasal injection (i.n.) of 25 μl OVA (20 mg/ml). One hour after the last i.n. challenge, the treatment group (n=7) was injected via the tail vein with pre-loaded, pre-labeled SCET (8×10^6) that contained nanoparticles coupled with […] curcumin dose. Others asthmatic mice were not injected with SCET to serve as untreated controls (n=6). […]
Each lung was placed in a labeled container with 1 ml PBS. The lungs were then sonicated for 10 seconds by the Sonic Dismembrinator 60 (Fisher Scientific) to lyse the Sertoli cells and release the curcumin nanoparticles. The curcumn was then separated from the nanoparticles by adding 500 μl DMSO to each container. The suspension was then centrifuged at 1200 rpm for 10 minutes and the supernatant was collected. A UV spectrum was collected from each supernatant sample. Data was presented for absorbance assays of Sertoli cells, nanoparticles and curcumin from all samples from all mice, including a sample of the nanoparticle pre-loaded, pre-labeled SC injectable (8×10^6) were replicated and the mean values of SCs, nanoparticles and curcumin were expressed as a percentage of the mean value determined in the pre-loaded, pre-labeled Sertloli cell injectable (8×10^6)

COc1cc(/C=C/C(=O)CC(=O)/C=C/c2ccc(O)c(OC)c2)ccc1O [curcumin]
80%: percentage of injected curcumin load present in the lungs (15 minutes post-injection) | delivery of curcumin throughout the pulmonary tissue (time not stated) | percentage of total curcumin in the injected SCET found in the lungs (asthmatic mice, 25 hours following injection) | percentage of injected curcumin load present in the lungs (asthmatic mice, one hour post-injection)
